The text below walks through data of patent US6723716B1, “7-acylamino-3-heteroarylthio-3-cephem carboxylic acid antibiotics and prodrugs thereof” (Essential Therapeutics, Inc., priority 1999, dated 2004).

One series concerns human serum proteins. The experiment in a line: Serum binding determination by ultrafiltration/HPLC. It is filed as in vitro ADME. Particulars: by HPLC. On the procedure: (§1) The more accurate measurement of binding of selected cephalosporin compounds was performed using HPLC as described below.
(§2) 1. Serum is placed in a shaking water bath preheated to 37±2° C. for 5 to 10 minutes to heat serum to 37° C. Serum pH is measured and recorded, while serum is 37° C. using pH paper. Measurements are taken twice, 3 minutes apart. If the pH is not 7.4±0.4 then the pH is adjusted by blowing 5% CO2/95% O2 over the serum. After blowing for several minutes, serum is heated to 37° C. and measurements are taken twice, 3 minutes apart using pH paper to determine the pH. Store at 4° C. The serum is stable for 7 days. Always check the pH before each use.
(§3) 2. Before any centrifugation, the centrifuge temperature must be adjusted to 25±2° C. Preheat the centrifuge by spinning for 45 minutes at the same speed to be used in the assay (1900 g) with two tubes of water in the rotor and the temperature set to 25° C. When the centrifuge stops immediately check the temperature of the tubes of water with a calibrated thermometer. The temperature of the tubes of water must be 25±2° C. […] Continue spinning and measuring the temperature and adjusting the setting until the temperature is 25±2° C.
(§4) 3. Prepare blank ultrafiltrate by pipetting blank pH 7.4 serum into an Amicon Centrifree Micropartition devices, centrifuge: fixed angle rotor, 1900 g, 25° C. for 20 minutes. Heat ultrafiltrate in a shaking water bath preheated to 37° C. Measure ultrafiltrate pH and adjust to the pH of the serum (7.4±0.2).
(§5) 4. Pipette 190 ul of blank ultrafiltrate into a set of labeled 1.7 mL polypropylene microfuge tubes for 3 of each level. Pipette 10 μL of the appropriate standard stock 50, 200, 1000 μg/mL to make standards 2.5, 10, and 50 μg/mL respectively. Vortex each tube well. One set of the standard samples are mixed 1:1 with 0.2 M acetic acid and injected onto the HPLC (MSTD). These samples are the membrane standards and will be used to compare to the other standards. Pipette 190 ul of ultrafiltrate and spike with 10 ul of whatever solution (e.g. water) the standards are prepared in to make the zero standard.
(§6) 5. Pipette 475 μL of blank heated pH 7.4 serum into a set of labeled 1.7 mL polypropylene microfuge tubes for 2 of each (Serum A and Serum B). Pipette 25 μL of the 1000 μg/mL standard stock into each tube, vortex each tube well to make serum standard 50 μg/mL. Remove 100 μL of serum and deproteinate with 200 μL 4% TCA while vortexing to make serum time 0 (serum 50, T0). Place serum tubes in a shaking water bath at 37° C. for 10 minutes. Pipet 100 μL of serum out and deproteinate with 200 μL 4% TCA, to make serum time 10 min (serum 50, T10). Pipet 200 ul serum standard 50 μg/mL into an ultrafiltration device, which is not treated with TCA, to determine free drug in samples (Rat Serum 50).
(§7) 6. Transfer serum and standard samples to labeled Amicon Centrifree Micropartition filters, and centrifuge: 1900 g, 25° C. for 10 minutes. The extracted serum samples (T0 and T10) are spun down and supernatant is loaded into HPLC vials.
(§8) 7. 100 μL of ultrafiltrate sample and 100 μL of 0.2 M acetic acid were mixed together to stabilize the compound in ultrafiltrate.
(§9) 8. Transfer entire stabilized ultrafiltrate solution to a labeled autoinjector HPLC vial cap with Teflon septa, and inject on HPLC.
(§10) Peak height or area is used in a weighted linear regression.

A further series has as its system S. aureus ATCC29213. In words: Human serum binding effect: MIC with and without human serum. It is filed as cell-based, Staphylococcus aureus. Particulars: 1:1 human serum:MHB. As for the experimental part:
The approximate measurement of the degree of binding of the compound to human serum proteins can be achieved by determination of the effect of the addition of human serum to the medium in which the MIC values against a selected bacterial strain is determined. The ratio of the MIC value obtained in presence of added human serum to the MIC value determined without serum addition was used as a measure of serum binding and the results of such determination are presented below in Table 2.
In addition to the standard MIC determination described above, the staphylococcal strain ATCC29213 is also tested in a ratio 1:1, human serum:MHB to obtain a preliminary estimate of the bioactivity of test compounds in serum: The assay was performed in Human Serum and Mueller-Hinton Broth (HSMHB) with a final bacterial inoculum of 1×10^6 CFU/mL (from an early-log phase culture) and a final volume of 100 μL. Control drugs, including imipenem, vancomycin, dicloxacillin, and new compounds were prepared in double-concentrated Mueller-Hinton broth at a concentration equivalent to 4-fold the desired final concentration. Dilution of compounds were prepared directly in the plates by serial 2-fold dilution in double-concentrated Mueller-Hinton using a multichannel pipette. Positive and negative growth controls were included in each plate. […] The inoculum was prepared by diluting the early log-phase (1 h) culture 1:100 with fresh double-concentrated Mueller-Hinton broth. A volume of 25 μL of the inoculum was added to each well. […] The exact inoculum was determined by applying 10 μl of 10-fold serial dilution of the bacterial suspension on TSA. After overnight incubation at 35° C., colony forming units were manually counted.

Series [1] relates to S. aureus ATCC 13709 (Smith diffuse). In words: Murine lethal bacteremic peritonitis (septicemia) efficacy. It is filed as in vivo, mice. On the procedure: 10 mice/group were injected intraperitoneally with 2.98×10^7 cfu S. aureus ATCC 13709 (Smith diffuse) and treated at 0 and 2 hrs post-challenge with serial two-fold doses of new cephalosporin antibiotic, imipenem and vancomycin subcutaneously in order to determine the ED50. Male Swiss-Webster mice weighing originally 24.2-26.1 g were obtained from Charles Rivers Labs, Hollister, Calif. Mice were housed 10 per cage and given free access to water and mouse chow.
Staphylococcus aureus ATCC 13709 (Smith diffuse) was grown overnight at 37° C. in Brain-heart Infusion broth (BHIB). The following morning, it was subcultured to fresh BHIB and incubated for 4-5 h at 37° C. The log-phase growth cells were washed once with physiological saline and adjusted to the desired concentration by correlation of absorbency at OD 600 nm with predetermined plate counts (NCCLS, 1994). The cell suspension was mixed with an equal volume of sterile 14% hog-gastric mucin (2). Inoculum was kept in an ice bath until used (<1 h).
Mice were challenged via an injection of 0.5 mL bacterial suspension intraperitoneally. The bacterial challenge was 2.98×10^7 cfu/mouse.
Imipenem (Primaxin IV; Lot 7294A), vancomycin (Vancocin; Lot 8MU60W), and new cephalosporin antibiotic were prepared by serial two-fold dilutions to concentrations of 0.078-0.005 mg/mL, 1.2-0.075 mg/mL, 0.3-0.02 mg/mL, 0.3-0.02 mg/mL and 0.3-0.02 mg/mL respectively in sterile water (1). All antibiotics were administered subcutaneously in 0.1 mL volumes at 0 and 2 hours post-challenge. Concentrations of all compounds are based on the weight of the bioactive ingredients.
The 50% effective dose (ED50) was calculated by the probit method (3) utilizing a program entitled Probit (Nycomed-Salutar).

Another series concerns rat serum proteins. In words: Serum binding determination by ultrafiltration/HPLC. Format: in vitro ADME. As to conditions: by HPLC. On the procedure: as §1, §2, §3, §4, §5, §6, §7, §8, §9, §10
The subject of the next series is rhesus serum proteins. The description is as above. Format: in vitro ADME. As to conditions: by HPLC. On the procedure: as §1, §2, §3, §4, §5, §6, §7, §8, §9, §10
Series [2] can be described thus: In vitro stability of compounds in rat serum. Format: in vitro ADME. On the procedure: In general, compounds from the class of 7-acylamino-3-heteroarylthio-3-cephem carboxylic acids have higher chemical reactivity and lower stability towards chemical or enzymatic decomposition than most typical cephalosporins. […] Results shown in Table 2 represent percentage loss of the initial amount of cephalosporin compound upon 60 min incubation in rat serum.
Procedure for measuring degree of degradation of cephalosporin compounds in rat serum was as follows:
Fresh control rat serum (heparinized and stored frozen) is preincubated at 37° C. for 15 min in a shaking water bath. pH is measured using test strips. 25 μL of a 2 mg/mL solution cephalosporin compound (in water) of is then added to each matrix to make 1000 μL. Solutions were incubated at 37° C. 100 ul of solution was taken out at time=0, 15, 30, and 60 min post dose and added 200 μL 4% trichloroacetic acid, vortexed, and centrifuged for 10 min at 14,000 rpm in an Eppendorf microcentrifuge. 25 μL of each supernatant was injected onto HPLC. Experiment was repeated using 25 μL of a 0.2 mg/mL cephalosporin compound. Degradation is measured as the percentage of HPLC peak area at time t relative to peak area at time 0.
HPLC conditions: Beckman Ultrasphere C18 column. 5 u. 4.6 mm×25 cm. 1 mL/min of 95% 0.1 M ammonium acetate, pH 6, 5% ACN going to 75% buffer/organic over 20 min. UV monitored at 254 and 280 nm.

Where [3] appears, read: Staphylococcus aureus, ATCC13709, sc, read-out: Efficacy in murine septicemia % survival.

As for `CN[C@H](CC(C)C)C(=O)N[C@H]1C(=O)N[C@@H](CC(N)=O)C(=O)N[C@H]2C(=O)N[C@H]3C(=O)N[C@H](C(=O)N[C@H](C(=O)O)c4cc(O)cc(O)c4-c4cc3ccc4O)[C@H](O)c3ccc(c(Cl)c3)Oc3cc2cc(c3O[C@@H]2O[C@H](CO)[C@@H](O)[C@H](O)[C@H]2O[C@H]2C[C@](C)(N)[C@H](O)[C@H](C)O2)Oc2ccc(cc2Cl)[C@H]1O` [Van., Vancomycin, reference compound], the “Serum Binding human (% of compound bound to serum)” value in the series with human serum proteins was found to be 55%. The “Human serum binding effect (ratio of MIC value determined with and without human serum added)” value in the series with S. aureus ATCC29213 came out at 2. In series [1] (setting [3]), the responders at 0.625 mg/kg was 10%, the responders at 1.25 mg/kg turned out to be 20% and the responders at 2.5 mg/kg amounted to 60%. Also, in series [1] (dose 5 mg/kg s.c. at 0 and 2 h post-challenge), the “Efficacy in murine septicemia % survival” value is given as 5/100%.
In the case of `N=C(N)NCCSCc1ncccc1SC1=C(C(=O)O)N2C(=O)[C@@H](NC(=O)/C(=N\O)c3nc(N)sc3Cl)[C@H]2SC1` [Cmpd 15, (7R)-7-[(Z)-2-(2-amino-5-chlorothiazol-4-yl)-2-(hydroxyimino)acetamido]-3-[2-(2-guanidinoethylthiomethyl)pyrid-3-ylthio]-3-cephem-4-carboxylic acid], the “Serum Binding human (% of compound bound to serum)” value in the series on human serum proteins is 83%. Besides, in the series with rat serum proteins, the “Serum Binding rat (% of compound bound to serum)” value was determined as 76%. Also, the “Serum Binding rhesus (% of compound bound to serum)” value in the series on rhesus serum proteins is reported as 88%. The “Human serum binding effect (ratio of MIC value determined with and without human serum added)” value in the series on S. aureus ATCC29213 is reported as 2. The “stability of compounds in rat serum” value in series [2] (Table 2 data) is on record as “improved stability”. In addition, the “Stability in rat serum (% loss)” value in series [2] (after 60 min exposure to rat serum, 37° C., HPLC) is 38%.
